Key:
Assay in all cases: relative viability (nuclei count vs DMSO), 5 days (fraction); higher = more cells survive
ABC-1 = system: ABC-1
How it was run: (§1)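 A single step with final 0.05% Triton X-100, 1% formaldehyde and 1 ug/ml Hoechst fixed the cells and stained nuclei 5 days after treatment. Lung cancer cell lines in 1536-well plates had been treated by pin tool the day after seeding with one drug alone or a fixed anchor-drug dose plus five library-drug doses (not always all listed) in √10 steps, and nuclei were counted on 4× images. Relative viability is the ratio of nuclei in treated wells to nuclei in vehicle wells, taken as the median of duplicate plates.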

COR-L23 = system: COR-L23
How it was run: as §1

EPLC-272H = system: EPLC-272H
How it was run: as §1

HARA = system: HARA
How it was run: as §1

HCC-15 = system: HCC-15
How it was run: as §1

HCC-44 = system: HCC-44
How it was run: as §1

HOP-62 = system: HOP-62
How it was run: as §1

LC-2-ad = system: LC-2-ad
How it was run: as §1

LU99A = system: LU99A
How it was run: as §1

NCI-H1355 = system: NCI-H1355
How it was run: as §1

NCI-H1651 = system: NCI-H1651
How it was run: as §1

NCI-H1915 = settings: first compound 0.0002 µM
How it was run: as §1

## CC(=O)O[C@@]12CO[C@@H]1C[C@H](O)[C@@]1(C)C(=O)[C@H](O)C3=C(C)[C@@H](OC(=O)[C@H](O)[C@@H](NC(=O)OC(C)(C)C)c4ccccc4)C[C@@](O)([C@@H](OC(=O)c4ccccc4)[C@H]21)C3(C)C [Docetaxel] + CC(=O)c1c(C)c2cnc(Nc3ccc(N4CCNCC4)cn3)nc2n(C2CCCC2)c1=O [Palbociclib] (partner 0.5 µM)
ABC-1; first compound 0.0002 µM
  relative viability: 0.568
ABC-1; first compound 0.000632 µM
  relative viability: 0.587
ABC-1; first compound 0.002 µM
  relative viability: 0.539
ABC-1; first compound 0.006325 µM
  relative viability: 0.444
ABC-1; first compound 0.02 µM
  relative viability: 0.437
COR-L23; first compound 0.0002 µM
  relative viability: 0.299
COR-L23; first compound 0.000632 µM
  relative viability: 0.262
COR-L23; first compound 0.002 µM
  relative viability: 0.142
COR-L23; first compound 0.006325 µM
  relative viability: 0.141
COR-L23; first compound 0.02 µM
  relative viability: 0.108
EPLC-272H; first compound 0.0002 µM
  relative viability: 0.374
EPLC-272H; first compound 0.000632 µM
  relative viability: 0.341
EPLC-272H; first compound 0.002 µM
  relative viability: 0.236
EPLC-272H; first compound 0.006325 µM
  relative viability: 0.204
EPLC-272H; first compound 0.02 µM
  relative viability: 0.148
HARA; first compound 0.0002 µM
  relative viability: 0.222
HARA; first compound 0.000632 µM
  relative viability: 0.189
HARA; first compound 0.002 µM
  relative viability: 0.168
HARA; first compound 0.006325 µM
  relative viability: 0.128
HARA; first compound 0.02 µM
  relative viability: 0.0982
HCC-15; first compound 0.0002 µM
  relative viability: 0.643
HCC-15; first compound 0.000632 µM
  relative viability: 0.383
HCC-15; first compound 0.002 µM
  relative viability: 0.228
HCC-15; first compound 0.006325 µM
  relative viability: 0.247
HCC-44; first compound 0.0002 µM
  relative viability: 0.904
HCC-44; first compound 0.000632 µM
  relative viability: 1.01
HCC-44; first compound 0.002 µM
  relative viability: 0.968
HCC-44; first compound 0.006325 µM
  relative viability: 0.691
HCC-44; first compound 0.02 µM
  relative viability: 0.632
HOP-62; first compound 0.0002 µM
  relative viability: 0.461
HOP-62; first compound 0.000632 µM
  relative viability: 0.353
HOP-62; first compound 0.002 µM
  relative viability: 0.284
HOP-62; first compound 0.02 µM
  relative viability: 0.156
LC-2-ad; first compound 0.0002 µM
  relative viability: 0.438
LC-2-ad; first compound 0.000632 µM
  relative viability: 0.448
LC-2-ad; first compound 0.002 µM
  relative viability: 0.334
LC-2-ad; first compound 0.006325 µM
  relative viability: 0.284
LC-2-ad; first compound 0.02 µM
  relative viability: 0.233
LU99A; first compound 0.0002 µM
  relative viability: 0.367
LU99A; first compound 0.000632 µM
  relative viability: 0.36
LU99A; first compound 0.002 µM
  relative viability: 0.265
LU99A; first compound 0.006325 µM
  relative viability: 0.245
LU99A; first compound 0.02 µM
  relative viability: 0.159
NCI-H1355; first compound 0.0002 µM
  relative viability: 0.374
NCI-H1355; first compound 0.000632 µM
  relative viability: 0.402
NCI-H1355; first compound 0.002 µM
  relative viability: 0.29
NCI-H1355; first compound 0.02 µM
  relative viability: 0.176
NCI-H1651; first compound 0.0002 µM
  relative viability: 0.478
NCI-H1651; first compound 0.000632 µM
  relative viability: 0.543
NCI-H1651; first compound 0.002 µM
  relative viability: 0.373
NCI-H1651; first compound 0.006325 µM
  relative viability: 0.212
NCI-H1915
  relative viability: 0.506

Source: the supplement of paper PMC10307832
